In PMC11855827, “High-Throughput Screening of Five Compound Libraries for Anthelmintic Activity and Toxicity Leads to the Discovery of Two Flavonoid Compounds” (International Journal of Molecular Sciences, 2025):
Structures can show the parent of a compound that is named as a salt. Where two headings read alike, the source gives them in different places.

Test system: C. elegans
Assay: microbe, parasite or virus in culture
Settings: Caenorhabditis elegans
[1] = 0 h, read-out: Percentage of motility inhibition 0 h, Table S2, C. elegans SS assay, 110 μM, 0 h, averages of 4 data points
[2] = 24 h, read-out: Percentage of motility inhibition 24 h, Table S2, C. elegans SS assay, 110 μM, 24 h, averages of 4 data points
[3] = 0 h, read-out: Percentage of motility inhibition 0 h
[4] = 24 h, read-out: Percentage of motility inhibition 24 h

Compound | inhibition at 110 µM [1] | inhibition at 110 µM [2] | further results
C[C@@H]1C/C=C/C=C/C=C/C=C/[C@H](O[C@@H]2O[C@H](C)[C@@H](O)[C@H](N)[C@@H]2O)C[C@@H]2O[C@](O)(C[C@@H](O)C[C@H]3O[C@@H]3/C=C/C(=O)O1)C[C@H](O)[C@H]2C(=O)O [Natamycin] | 26% | 0% | –
COc1ccc(C[C@@H]2c3cc(Oc4cc(C[C@@H]5c6cc(OC)c(OC)cc6CCN5C)ccc4O)c(OC)cc3CCN2C)cc1 [Neferine] | – | – | inhibition at 110 µM [3]: 25%; inhibition at 110 µM [4]: 9%
C=C1CC[C@@H]2[C@](C)(CO[C@@H]3O[C@H](CO)[C@@H](O)[C@H](O)[C@H]3O)CCC[C@@]2(C)[C@@H]1CCC1=CCOC1=O [Neoandrographolide] | 15% | 40% | –
CC(C)=CCc1cc(-c2coc3cc(O)ccc3c2=O)ccc1O [Neobavaisoflavone] | 10% | 21% | –
C[C@H](CO)C1=C(O)C(=O)c2c(ccc3c2CCCC3(C)C)C1=O [Neocryptotanshinone] | 18% | 25% | –
COc1ccc(CCC(=O)c2c(O)cc(O[C@@H]3O[C@H](CO)[C@@H](O)[C@H](O)[C@H]3O[C@@H]3O[C@@H](C)[C@H](O)[C@@H](O)[C@H]3O)cc2O)cc1O [Neohesperidin dihydrochalcone] | 10% | 2% | –
CC[C@@H]1[C@H]2CCCCN3[C@H]2[C@@H](C[C@H]3[C@@H]2C[C@H](C)C(=O)O2)[C@H]2[C@@H]1OC(=O)[C@H]2C [Neotuberostemonine] | 0% | 9% | –
COc1ccc(-c2cc(=O)c3c(O)c(OC)c(O)c(OC)c3o2)cc1 [Nevadensin] | 39% | 0% | –
Cc1ccnc2c1NC(=O)c1cccnc1N2C1CC1 [Nevirapine] | 10% | 6% | –
O=C(O)c1cccnc1 [Niacin] | 0% | 14% | –
CSCC1CN(/N=C/c2ccc([N+](=O)[O-])o2)C(=O)O1 (stereo not shown) [Nifuratel] | 0% | 4% | –
O=C(N/N=C/c1ccc([N+](=O)[O-])o1)c1cc([N+](=O)[O-])cc([N+](=O)[O-])c1O [Nifursol] | 8% | 6% | –
O=[N+]([O-])c1cncn1CCN1CCOCC1 [Nimorazole] | 0% | 0% | –
CC(=O)Oc1ccccc1C(=O)Nc1ncc([N+](=O)[O-])s1 [Nitazoxanide] | 51% | 49% | –
CC(=O)Nc1ncc([N+](=O)[O-])s1 [Nithiamide] | 32% | 7% | –
O=C1CN(/N=C/c2ccc([N+](=O)[O-])o2)C(=O)N1 [Nitrofurantoin] | 24% | 4% | –
NC(=O)N/N=C/c1ccc([N+](=O)[O-])o1 [Nitrofurazone] | 25% | 22% | –
COc1ccc(-c2cc(=O)c3c(OC)c(OC)c(OC)c(OC)c3o2)cc1OC [Nobiletin] | 0% | 0% | –
C=C1C(=O)[C@]23C[C@H]1C[C@@H](O)[C@H]2[C@@]12CO[C@@H](O)[C@@H]1C(C)(C)CC[C@@H]2OC3=O [Nodosin] | 0% | 14% | –

Compound | inhibition at 110 µM [1] | inhibition at 110 µM [2] | further results
CC(=O)O[C@H]1CC(=O)OC(C)(C)[C@@H]2CC(=O)[C@]3(C)[C@H](CC[C@@]4(C)[C@H](c5ccoc5)OC(=O)[C@H]5O[C@]543)[C@@]12C [Nomilin] | 0% | 22% | –
CCCCCCCCC(=O)NCc1ccc(O)c(OC)c1 [Nonivamide] | – | 0% | –
C=C(C)[C@@H]1CCC2=CC(=O)C[C@@H](C)[C@]2(C)C1 [Nootkatone] | 28% | 20% | –
c1ccc2c(c1)[nH]c1cnccc12 [Norharmane] | 0% | 9% | –
O=c1cc(-c2ccccc2)oc2c(O)c(O)cc(O)c12 [Norwogonin] | 0% | 12% | –
COc1cc2c3c(c1OC)-c1ccccc1C[C@H]3N(C)CC2 [Nuciferine] | 0% | 16% | –
Cc1onc(-c2ccccc2)c1C(=O)N1CCN(c2ccc([N+](=O)[O-])cc2Cl)CC1 [Nucleozin] | 17% | 8% | –
CNCc1ccccc1 [N‐Methylbenzylamine] | 0% | 4% | –
CNC(=O)c1cccnc1 [N‐Methylnicotinamide] | 3% | 0% | –
CC1COc2c(N3CCN(C)CC3)c(F)cc3c(=O)c(C(=O)O)cn1c23 (stereo not shown) [Ofloxacin] | 2% | 0% | –
CC1(C)CC[C@]2(C(=O)O)CC[C@]3(C)C(=CC[C@@H]4[C@@]5(C)CCC(=O)C(C)(C)[C@@H]5CC[C@]43C)[C@@H]2C1 [Oleanonic acid] | – | – | inhibition at 110 µM [3]: 15%
CCCCCCCC/C=C\CCCCCCCC(=O)O [Oleic acid] | 0% | 0% | –
C/C=C1/[C@H](O[C@@H]2O[C@H](CO)[C@@H](O)[C@H](O)[C@H]2O)OC=C(C(=O)OC)[C@H]1CC(=O)OCCc1ccc(O)c(O)c1 [Oleuropein] | 0% | 0% | –
COc1ccc(-c2coc3cc(O[C@@H]4O[C@H](CO)[C@@H](O)[C@H](O)[C@H]4O)ccc3c2=O)cc1 [Ononin] | 10% | 0% | –
C=C1C(=O)[C@]23[C@H](O)[C@H]1CC[C@H]2[C@@]12CO[C@]3(O)[C@@H](O)[C@@H]1C(C)(C)CC[C@@H]2O [Oridonin] | 0% | 3% | –
Cc1ncc([N+](=O)[O-])n1CC(O)CCl (stereo not shown) [Ornidazole] | 8% | 7% | –
COc1c(O)cc2oc(-c3ccccc3)cc(=O)c2c1O [Oroxylin A] | 39% | 12% | –
O=C(Nc1ccc(O)cc1)c1ccccc1O [Osalmid] | 48% | 1% | –
CN(C(=O)CN(CCO)CC(=O)N(C)C(C)(C)Cc1ccccc1)C(C)(C)Cc1ccccc1 [Oxethazaine] | 44% | 25% | –

Compound | inhibition at 110 µM [1] | inhibition at 110 µM [2] | further results
COC(=O)Nc1nc2ccc([S+]([O-])c3ccccc3)cc2[nH]1 (stereo not shown) [Oxfendazole] | 12% | 5% | –
CCCOc1ccc2nc(NC(=O)OC)[nH]c2c1 [Oxibendazole] | 17% | 28% | –
O=C1Cc2ccccc2N1 [Oxindole] | 14% | 7% | –
O=C(Nc1cc(Cl)cc(Cl)c1O)c1c(O)c(Cl)cc(Cl)c1Cl [Oxyclozanide, reference compound] | – | – | inhibition at 110 µM (0 h, read-out: Inhibition (%) 110 μM (0 h), C. elegans L4 motility, 110 μM, 0 h, mean ± SD of four experiments): 10 ± 9%; inhibition at 110 µM (24 h, read-out: Inhibition (%) 110 μM (24 h), C. elegans L4 motility, 110 μM, 24 h, mean ± SD of four experiments): 93 ± 5%
CCCCC1C(=O)N(c2ccccc2)N(c2ccc(O)cc2)C1=O (stereo not shown) [Oxyphenbutazone] | 0% | 0% | –
O=C1C=CC[C@@H]2[C@H]3CCC[N+]4([O-])CCC[C@@H](CN12)[C@@H]34 (stereo partly shown) [Oxysophocarpine] | 34% | 0% | –
CN(C)[C@@H]1C(O)=C(C(N)=O)C(=O)[C@@]2(O)C(O)=C3C(=O)c4c(O)cccc4[C@@](C)(O)[C@H]3[C@H](O)[C@@H]12 [Oxytetracycline] | 20% | 13% | –
O=[N+]([O-])c1cn2c(n1)OC[C@@H](OCc1ccc(OC(F)(F)F)cc1)C2 [PA‐824] | 33% | 0% | –
CC(C)OC(=O)[C@H](C)N[P@](=O)(OC[C@H]1O[C@@H](n2ccc(=O)[nH]c2=O)[C@](C)(F)[C@@H]1O)Oc1ccccc1 [PSI‐7977] | 6% | 11% | –
C=C(CC[C@@H](C(=O)O)[C@H]1[C@H](O)C[C@@]2(C)C3=C(CC[C@]12C)[C@@]1(C)CC[C@H](OC(C)=O)C(C)(C)[C@@H]1CC3)C(C)C [Pachymic acid] | 45% | 21% | –
C[C@@]12C[C@@]3(O)O[C@@H](O1)[C@]1(COC(=O)c4ccccc4)[C@H]3C[C@@]12O[C@@H]1O[C@H](CO)[C@@H](O)[C@H](O)[C@H]1O [Paeoniflorin] | 4% | 10% | –
COc1ccc(C(C)=O)c(O)c1 [Paeonol] | – | – | inhibition at 110 µM [3]: 0%; inhibition at 110 µM [4]: 0%
CC1(C)CCC[C@](C)([C@H]2CC[C@]3(C)[C@@H]2[C@H](O)C[C@@H]2[C@@]4(C)CC[C@H](O)C(C)(C)[C@@H]4CC[C@]23C)O1 [Panaxadiol] | 39% | 36% | –
C=C1C(=O)O[C@H]2[C@H]1CC/C(C)=C/CC[C@@]1(C)O[C@@H]21 [Parthenolide] | 6% | 26% | –
COc1ccc(-c2cc(=O)c3c(O)c(OC)c(O)cc3o2)cc1 [Pectolinarigenin] | 4% | 0% | –
C[C@@H]1CC[C@]2(C(=O)O[C@@H]3O[C@H](CO)[C@@H](O)[C@H](O)[C@H]3O)CC[C@]3(C)C(=CC[C@@H]4[C@@]5(C)CC[C@H](O)[C@@](C)(CO)[C@@H]5CC[C@]43C)[C@@H]2[C@]1(C)O [Pedunculoside] | 14% | 13% | –
Nc1nc2c(ncn2CCC(CO)CO)c(=O)[nH]1 [Penciclovir] | 22% | 1% | –
CC1(C)S[C@@H]2[C@H](NC(=O)Cc3ccccc3)C(=O)N2[C@H]1C(=O)O [Penicillin G s odium salt] | 16% | 22% | –
CC(C)CC(C)c1sccc1NC(=O)c1cn(C)nc1C(F)(F)F (stereo not shown) [Penthiopyrad] | 21% | 18% | –
